Measurements published in ChEMBL document CHEMBL4052759, “Discovery of DS79182026: A potent orally active hepcidin production inhibitor” (Bioorg Med Chem Lett, 2017).
Values belong to the molecule of their own block, whether it stands above or below them.

Legend:
[1] = biological target: Mitogen-activated protein kinase kinase kinase kinase 4 (Homo sapiens) (UniProt O95819); test: Inhibition of HGK (unknown origin) at 0.078 uM relative to control
[2] = Unbound fraction in po dosed C57BL/6J mouse plasma by LC-MS/MS analysis; format: ADME, organism-based
[3] = biological target: Serine/threonine-protein kinase PAK 2 (Homo sapiens) (UniProt Q13177); test: Inhibition of PAK2 (unknown origin) at 0.078 uM relative to control
[4] = biological target: Serine/threonine-protein kinase Chk2 (Homo sapiens) (UniProt O96017); test: Inhibition of CHK2 (unknown origin) at 0.45 uM relative to control
[5] = biological target: Casein kinase I isoform delta (Homo sapiens) (UniProt P48730); test: Inhibition of CK1-delta (unknown origin) at 0.45 uM relative to control
[6] = biological target: T1, Interleukin-1 receptor-associated kinase 4 (Homo sapiens) (UniProt Q9NWZ3); test: Inhibition of IRAK4 (unknown origin) at 0.45 uM relative to control
T1 sequence (whole entry): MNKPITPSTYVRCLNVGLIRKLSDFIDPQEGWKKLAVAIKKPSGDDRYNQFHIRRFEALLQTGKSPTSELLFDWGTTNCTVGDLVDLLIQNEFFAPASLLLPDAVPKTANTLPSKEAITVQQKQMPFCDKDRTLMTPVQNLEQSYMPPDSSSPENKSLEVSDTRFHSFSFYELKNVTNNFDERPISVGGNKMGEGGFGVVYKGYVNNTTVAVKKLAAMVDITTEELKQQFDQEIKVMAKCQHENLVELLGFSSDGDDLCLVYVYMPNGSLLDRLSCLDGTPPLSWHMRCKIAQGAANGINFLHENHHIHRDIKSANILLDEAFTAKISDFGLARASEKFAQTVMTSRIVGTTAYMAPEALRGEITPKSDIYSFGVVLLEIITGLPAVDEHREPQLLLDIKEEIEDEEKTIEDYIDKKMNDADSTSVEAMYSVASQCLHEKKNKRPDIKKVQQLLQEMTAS

[7] = biological target: Serine/threonine-protein kinase PAK 3 (Homo sapiens) (UniProt O75914); test: Inhibition of PAK3 (unknown origin) at 0.45 uM relative to control
[8] = system: Proto-oncogene tyrosine-protein kinase receptor Ret (Homo sapiens), P07949 [Y791F]; test: Inhibition of RET Y791F mutant (unknown origin) at 0.45 uM relative to control
[9] = biological target: Discoidin domain-containing receptor 2 (Homo sapiens) (UniProt Q16832); test: Inhibition of DDR2 (unknown origin) at 0.45 uM relative to control
Sequence of Discoidin domain-containing receptor 2 (Homo sapiens) (Q16832 whole entry, the tested form may be a part): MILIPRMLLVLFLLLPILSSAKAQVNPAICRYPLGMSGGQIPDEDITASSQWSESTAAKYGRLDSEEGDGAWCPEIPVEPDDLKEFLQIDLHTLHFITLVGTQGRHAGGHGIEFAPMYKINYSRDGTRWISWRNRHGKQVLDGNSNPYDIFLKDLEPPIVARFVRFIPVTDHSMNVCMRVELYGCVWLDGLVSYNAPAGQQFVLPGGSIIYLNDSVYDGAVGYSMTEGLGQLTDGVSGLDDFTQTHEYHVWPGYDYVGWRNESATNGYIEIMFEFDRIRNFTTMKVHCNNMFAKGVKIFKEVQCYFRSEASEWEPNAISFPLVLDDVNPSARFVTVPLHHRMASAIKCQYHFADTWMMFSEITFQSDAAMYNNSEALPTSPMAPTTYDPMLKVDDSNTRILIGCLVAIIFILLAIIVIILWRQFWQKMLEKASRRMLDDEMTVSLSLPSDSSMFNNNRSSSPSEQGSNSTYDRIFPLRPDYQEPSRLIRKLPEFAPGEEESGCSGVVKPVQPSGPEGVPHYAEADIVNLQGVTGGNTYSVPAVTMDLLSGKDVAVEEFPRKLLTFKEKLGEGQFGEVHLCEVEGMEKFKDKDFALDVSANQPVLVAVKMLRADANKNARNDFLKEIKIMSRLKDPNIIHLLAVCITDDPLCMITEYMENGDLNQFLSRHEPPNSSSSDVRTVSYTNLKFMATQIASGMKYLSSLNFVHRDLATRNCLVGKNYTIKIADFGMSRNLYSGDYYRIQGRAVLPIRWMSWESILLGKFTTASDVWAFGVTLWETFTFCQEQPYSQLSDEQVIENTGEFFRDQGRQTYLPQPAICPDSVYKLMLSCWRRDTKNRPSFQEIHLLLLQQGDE

[10] = biological target: PAS domain-containing serine/threonine-protein kinase (Homo sapiens) (UniProt Q96RG2); test: Inhibition of PASK (unknown origin) at 0.45 uM relative to control
Sequence of PAS domain-containing serine/threonine-protein kinase (Homo sapiens) (Q96RG2 whole entry, the tested form may be a part): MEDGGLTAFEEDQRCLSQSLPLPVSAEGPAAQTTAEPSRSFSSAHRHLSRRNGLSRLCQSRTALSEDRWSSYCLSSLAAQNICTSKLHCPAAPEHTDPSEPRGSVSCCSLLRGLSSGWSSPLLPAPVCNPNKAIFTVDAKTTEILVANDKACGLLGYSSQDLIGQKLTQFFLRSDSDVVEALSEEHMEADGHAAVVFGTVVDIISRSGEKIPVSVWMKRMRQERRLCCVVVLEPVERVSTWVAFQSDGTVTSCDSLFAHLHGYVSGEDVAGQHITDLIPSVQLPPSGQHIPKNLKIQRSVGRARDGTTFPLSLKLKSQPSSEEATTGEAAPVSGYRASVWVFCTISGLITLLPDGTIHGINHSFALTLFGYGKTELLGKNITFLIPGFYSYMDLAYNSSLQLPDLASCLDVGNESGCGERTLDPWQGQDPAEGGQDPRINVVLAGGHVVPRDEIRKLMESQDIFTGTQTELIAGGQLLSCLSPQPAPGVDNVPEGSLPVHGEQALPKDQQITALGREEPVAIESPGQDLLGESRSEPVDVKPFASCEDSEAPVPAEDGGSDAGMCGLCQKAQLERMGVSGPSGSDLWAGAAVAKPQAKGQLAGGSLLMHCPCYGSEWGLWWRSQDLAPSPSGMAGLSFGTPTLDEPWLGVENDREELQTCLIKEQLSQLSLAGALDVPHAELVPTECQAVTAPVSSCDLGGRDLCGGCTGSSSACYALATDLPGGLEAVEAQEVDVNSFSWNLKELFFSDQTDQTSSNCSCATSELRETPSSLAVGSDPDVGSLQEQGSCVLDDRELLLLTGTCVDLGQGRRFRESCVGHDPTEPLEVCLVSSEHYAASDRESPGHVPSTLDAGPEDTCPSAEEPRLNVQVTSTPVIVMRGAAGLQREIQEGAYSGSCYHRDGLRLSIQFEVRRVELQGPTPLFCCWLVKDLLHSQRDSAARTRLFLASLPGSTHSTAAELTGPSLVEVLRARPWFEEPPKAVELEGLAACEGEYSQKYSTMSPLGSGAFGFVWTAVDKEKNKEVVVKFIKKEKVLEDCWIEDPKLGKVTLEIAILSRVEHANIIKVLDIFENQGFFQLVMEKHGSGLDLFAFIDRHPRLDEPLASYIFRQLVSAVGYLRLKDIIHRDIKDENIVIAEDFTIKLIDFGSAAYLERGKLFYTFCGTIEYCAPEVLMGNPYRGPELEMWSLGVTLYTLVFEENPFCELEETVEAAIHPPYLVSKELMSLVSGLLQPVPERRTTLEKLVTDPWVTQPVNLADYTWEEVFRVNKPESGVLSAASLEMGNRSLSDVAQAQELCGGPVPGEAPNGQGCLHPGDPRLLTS

[11] = biological target: Leukocyte tyrosine kinase receptor (Homo sapiens) (UniProt P29376); test: Inhibition of LTK (unknown origin) at 0.45 uM relative to control
Sequence of Leukocyte tyrosine kinase receptor (Homo sapiens) (P29376 whole entry): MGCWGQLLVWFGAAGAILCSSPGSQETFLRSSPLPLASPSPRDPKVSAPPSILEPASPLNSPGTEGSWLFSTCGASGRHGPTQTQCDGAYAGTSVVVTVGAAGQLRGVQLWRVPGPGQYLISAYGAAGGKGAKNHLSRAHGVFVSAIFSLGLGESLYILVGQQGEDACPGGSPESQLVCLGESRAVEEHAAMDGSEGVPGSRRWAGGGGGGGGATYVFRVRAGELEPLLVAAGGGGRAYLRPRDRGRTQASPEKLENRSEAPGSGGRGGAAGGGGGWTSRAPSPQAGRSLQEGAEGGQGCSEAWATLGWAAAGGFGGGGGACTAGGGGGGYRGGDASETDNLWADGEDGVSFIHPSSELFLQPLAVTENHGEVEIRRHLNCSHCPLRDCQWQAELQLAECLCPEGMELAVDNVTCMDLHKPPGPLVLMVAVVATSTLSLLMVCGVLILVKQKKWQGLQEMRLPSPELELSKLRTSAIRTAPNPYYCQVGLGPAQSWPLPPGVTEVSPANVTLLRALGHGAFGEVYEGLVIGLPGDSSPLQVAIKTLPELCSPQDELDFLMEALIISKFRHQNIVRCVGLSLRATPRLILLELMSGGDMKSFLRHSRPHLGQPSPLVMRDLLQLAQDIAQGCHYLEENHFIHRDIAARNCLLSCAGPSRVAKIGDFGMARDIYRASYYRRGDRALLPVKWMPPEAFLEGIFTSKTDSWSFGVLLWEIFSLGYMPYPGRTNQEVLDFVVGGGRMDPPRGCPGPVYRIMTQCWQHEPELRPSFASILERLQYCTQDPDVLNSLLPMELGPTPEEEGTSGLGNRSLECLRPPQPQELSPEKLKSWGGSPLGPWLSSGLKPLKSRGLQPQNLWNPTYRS

[12] = biological target: Homeodomain-interacting protein kinase 1 (Homo sapiens) (UniProt Q86Z02); test: Inhibition of HIPK1 (unknown origin) at 0.45 uM relative to control
MAP4K2 (Homo sapiens) = test: Inhibition of GCK (unknown origin) at 0.45 uM relative to control
[13] = biological target: Calcium/calmodulin-dependent protein kinase type II subunit alpha (Homo sapiens) (UniProt Q9UQM7); test: Inhibition of CaMK2a (unknown origin) at 0.45 uM relative to control
[14] = biological target: Protein kinase C eta type (Homo sapiens) (UniProt P24723); test: Inhibition of PKC-eta (unknown origin) at 0.45 uM relative to control
[15] = biological target: Mitogen-activated protein kinase 11 (Homo sapiens) (UniProt Q15759); test: Inhibition of p38-beta2 (unknown origin) at 0.45 uM relative to control
[16] = biological target: Cyclin-dependent kinase 3 (Homo sapiens) (UniProt Q00526); test: Inhibition of CDK3 (unknown origin) at 0.49 uM relative to control
[17] = biological target: Fibroblast growth factor receptor 2 (Homo sapiens) (UniProt P21802); test: Inhibition of FGFR2 (unknown origin) at 0.49 uM relative to control
[18] = system: Fibroblast growth factor receptor 4 (Homo sapiens), P22455 [V550L]; test: Inhibition of FGFR4 V550L mutant (unknown origin) at 0.49 uM relative to control
[19] = biological target: Tyrosine-protein kinase Tec (Homo sapiens) (UniProt P42680); test: Inhibition of TEC (unknown origin) at 0.49 uM relative to control
[20] = system: Tyrosine-protein kinase ABL1 (Homo sapiens), P00519 [Q252H]; test: Inhibition of Abl Q252H mutant (unknown origin) at 0.49 uM relative to control
[21] = biological target: Ephrin type-A receptor 4 (Homo sapiens) (UniProt P54764); test: Inhibition of EPHA4 (unknown origin) at 0.49 uM relative to control
[22] = biological target: Phosphorylase b kinase gamma catalytic chain, skeletal muscle/heart isoform (Homo sapiens) (UniProt Q16816); test: Inhibition of PhKg1 (unknown origin) at 0.49 uM relative to control
[23] = biological target: Tyrosine-protein kinase Fes/Fps (Homo sapiens) (UniProt P07332); test: Inhibition of FES (unknown origin) at 0.49 uM relative to control
[24] = system: Tyrosine-protein kinase ABL1 (Homo sapiens), P00519 [T315I]; test: Inhibition of Abl T315I mutant (unknown origin) at 0.49 uM relative to control
[25] = biological target: T2, Serine/threonine-protein kinase Sgk1 (Homo sapiens) (UniProt O00141); test: Inhibition of SGK1 (unknown origin) at 0.49 uM relative to control
T2 sequence (whole entry): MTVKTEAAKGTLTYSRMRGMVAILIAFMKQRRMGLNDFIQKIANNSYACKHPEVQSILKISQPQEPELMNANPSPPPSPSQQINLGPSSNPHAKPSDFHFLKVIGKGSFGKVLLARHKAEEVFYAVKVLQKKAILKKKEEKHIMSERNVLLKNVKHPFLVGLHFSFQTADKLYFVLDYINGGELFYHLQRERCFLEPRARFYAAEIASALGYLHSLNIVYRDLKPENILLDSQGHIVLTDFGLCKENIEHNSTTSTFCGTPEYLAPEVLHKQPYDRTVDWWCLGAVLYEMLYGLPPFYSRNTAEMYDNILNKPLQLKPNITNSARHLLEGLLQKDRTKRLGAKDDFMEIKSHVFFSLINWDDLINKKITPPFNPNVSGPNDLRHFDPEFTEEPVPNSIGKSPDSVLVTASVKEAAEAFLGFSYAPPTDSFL

[26] = biological target: Fibroblast growth factor receptor 1 (Homo sapiens) (UniProt P11362); test: Inhibition of FGFR1 (unknown origin) at 0.49 uM relative to control
Sequence of Fibroblast growth factor receptor 1 (Homo sapiens) (P11362 22-822 limits assumed): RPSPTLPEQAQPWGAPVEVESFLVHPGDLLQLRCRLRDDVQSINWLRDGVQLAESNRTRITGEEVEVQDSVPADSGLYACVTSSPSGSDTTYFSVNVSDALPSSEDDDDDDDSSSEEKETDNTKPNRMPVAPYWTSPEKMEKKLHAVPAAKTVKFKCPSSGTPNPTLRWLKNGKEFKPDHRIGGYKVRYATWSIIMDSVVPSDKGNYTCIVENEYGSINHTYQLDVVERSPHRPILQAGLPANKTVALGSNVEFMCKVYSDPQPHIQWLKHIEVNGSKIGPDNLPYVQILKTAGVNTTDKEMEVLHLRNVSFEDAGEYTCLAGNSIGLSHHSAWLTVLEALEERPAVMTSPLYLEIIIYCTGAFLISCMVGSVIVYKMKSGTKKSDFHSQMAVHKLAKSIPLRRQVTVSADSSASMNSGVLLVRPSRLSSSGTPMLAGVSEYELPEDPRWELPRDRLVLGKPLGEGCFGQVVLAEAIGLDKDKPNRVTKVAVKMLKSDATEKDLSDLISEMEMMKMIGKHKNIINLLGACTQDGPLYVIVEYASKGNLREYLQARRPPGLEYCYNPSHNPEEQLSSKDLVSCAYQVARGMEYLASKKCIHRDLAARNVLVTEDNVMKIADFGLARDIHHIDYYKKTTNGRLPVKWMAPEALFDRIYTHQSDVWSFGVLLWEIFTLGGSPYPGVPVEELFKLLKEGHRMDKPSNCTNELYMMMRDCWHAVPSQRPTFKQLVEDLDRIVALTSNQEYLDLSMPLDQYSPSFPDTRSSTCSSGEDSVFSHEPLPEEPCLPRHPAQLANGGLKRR

[27] = biological target: Tyrosine-protein kinase receptor UFO (Homo sapiens) (UniProt P30530); test: Inhibition of AXL (unknown origin) at 0.49 uM relative to control

Sequence of Mitogen-activated protein kinase kinase kinase kinase 4 (Homo sapiens) (O95819 2-1239 limits assumed): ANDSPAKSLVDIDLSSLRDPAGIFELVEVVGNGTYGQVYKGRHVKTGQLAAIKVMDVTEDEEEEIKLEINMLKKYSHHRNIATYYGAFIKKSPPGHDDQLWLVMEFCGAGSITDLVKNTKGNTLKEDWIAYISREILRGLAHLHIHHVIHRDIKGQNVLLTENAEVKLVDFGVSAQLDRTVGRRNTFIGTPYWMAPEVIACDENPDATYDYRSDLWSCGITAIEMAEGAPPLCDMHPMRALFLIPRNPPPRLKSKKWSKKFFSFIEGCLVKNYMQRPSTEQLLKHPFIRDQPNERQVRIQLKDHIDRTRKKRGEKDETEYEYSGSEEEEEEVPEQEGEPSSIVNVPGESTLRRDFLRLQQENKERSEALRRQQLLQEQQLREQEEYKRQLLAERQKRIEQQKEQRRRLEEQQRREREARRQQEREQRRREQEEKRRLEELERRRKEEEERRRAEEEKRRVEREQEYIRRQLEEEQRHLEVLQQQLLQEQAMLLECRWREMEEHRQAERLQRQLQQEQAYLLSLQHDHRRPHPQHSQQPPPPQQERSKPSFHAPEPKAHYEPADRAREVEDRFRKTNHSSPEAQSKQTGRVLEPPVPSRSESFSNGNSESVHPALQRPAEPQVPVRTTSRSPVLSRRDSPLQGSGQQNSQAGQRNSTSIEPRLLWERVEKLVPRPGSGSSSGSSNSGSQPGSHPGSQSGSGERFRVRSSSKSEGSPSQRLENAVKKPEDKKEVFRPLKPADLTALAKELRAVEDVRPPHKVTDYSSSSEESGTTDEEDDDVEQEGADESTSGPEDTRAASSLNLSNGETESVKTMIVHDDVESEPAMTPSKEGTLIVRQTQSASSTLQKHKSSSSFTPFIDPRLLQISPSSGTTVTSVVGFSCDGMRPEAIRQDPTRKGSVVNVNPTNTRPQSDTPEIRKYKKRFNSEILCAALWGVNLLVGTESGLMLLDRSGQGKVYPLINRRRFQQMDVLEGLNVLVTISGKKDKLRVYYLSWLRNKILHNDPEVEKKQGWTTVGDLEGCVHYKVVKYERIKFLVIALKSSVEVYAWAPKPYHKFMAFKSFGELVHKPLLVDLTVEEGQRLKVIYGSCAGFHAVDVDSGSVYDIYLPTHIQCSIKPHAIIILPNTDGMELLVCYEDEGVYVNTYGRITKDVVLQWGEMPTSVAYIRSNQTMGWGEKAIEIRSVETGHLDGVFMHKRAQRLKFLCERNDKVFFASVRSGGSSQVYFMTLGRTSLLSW

inhibition [1]: 40.7% | fraction unbound [2]: 0.17 | inhibition [3]: -5.3%
Structure (SMILES): COC(=O)Nc1noc2cc(-c3c(-c4ccccn4)n[nH]c3C)ccc12

inhibition [4]: 3% | inhibition [5]: 5% | inhibition [6]: 11% | inhibition [7]: 3.7% | inhibition [8]: 58.7% | inhibition [9]: 66% | inhibition [10]: -2% | inhibition [11]: 0% | inhibition [12]: 2.7% | inhibition (MAP4K2 (Homo sapiens)): 66% | inhibition [13]: 2.7% | inhibition [14]: 0.3% | inhibition [15]: -1.3%
Structure (SMILES): Cc1n[nH]c(C)c1-c1ccc2c(NC(=O)c3ccc(N4CCN(C)CC4)cc3)n[nH]c2c1

inhibition [16]: 3.3% | inhibition [17]: -0.7% | inhibition [18]: 4% | inhibition [19]: 3.7% | inhibition [20]: 30.3% | inhibition [21]: 2.3% | inhibition [22]: 2.3% | inhibition [23]: -5.3% | inhibition [24]: 11% | inhibition [25]: 2.3% | inhibition [26]: 0.7% | inhibition [27]: -0.3%
Structure (SMILES): Cc1[nH]nc(C2CC2)c1-c1ccc2c(NC(=O)C3CC3)noc2c1
